Results published in patent publication US20160137990A1, “CRYSTAL STRUCTURE OF BLOOD COAGULATION FACTOR XIIIA” (ZEDIRA GMBH, priority 2012, published 2016).
Counter-ions that a name gives are not always drawn. Starred links: 1 amine or outer side, 2 acyl side, 3 side chain; linkers in the order of their positions; H or OH if unused. Non-standard residues stand in square brackets, D forms with d. Residues, ends and D or L forms follow the SMILES beside them. ξ: configuration not given here. X1 = COC(=O)/C=C/CC[C@H](N[*:1])C(=O)[*:2]; Pro(4-oxo) = O=C1CN[C@H](C(=O)O)C1; Ile(3ξ) = CCC(C)[C@H](N)C(=O)O; Nle = CCCC[C@H](N)C(=O)O

Target: T1, Factor XIIIa (Homo sapiens, UniProt P00488)
T1 construct: purchased Zedira T027 or T007
T1 sequence (P00488 39-732 limits assumed): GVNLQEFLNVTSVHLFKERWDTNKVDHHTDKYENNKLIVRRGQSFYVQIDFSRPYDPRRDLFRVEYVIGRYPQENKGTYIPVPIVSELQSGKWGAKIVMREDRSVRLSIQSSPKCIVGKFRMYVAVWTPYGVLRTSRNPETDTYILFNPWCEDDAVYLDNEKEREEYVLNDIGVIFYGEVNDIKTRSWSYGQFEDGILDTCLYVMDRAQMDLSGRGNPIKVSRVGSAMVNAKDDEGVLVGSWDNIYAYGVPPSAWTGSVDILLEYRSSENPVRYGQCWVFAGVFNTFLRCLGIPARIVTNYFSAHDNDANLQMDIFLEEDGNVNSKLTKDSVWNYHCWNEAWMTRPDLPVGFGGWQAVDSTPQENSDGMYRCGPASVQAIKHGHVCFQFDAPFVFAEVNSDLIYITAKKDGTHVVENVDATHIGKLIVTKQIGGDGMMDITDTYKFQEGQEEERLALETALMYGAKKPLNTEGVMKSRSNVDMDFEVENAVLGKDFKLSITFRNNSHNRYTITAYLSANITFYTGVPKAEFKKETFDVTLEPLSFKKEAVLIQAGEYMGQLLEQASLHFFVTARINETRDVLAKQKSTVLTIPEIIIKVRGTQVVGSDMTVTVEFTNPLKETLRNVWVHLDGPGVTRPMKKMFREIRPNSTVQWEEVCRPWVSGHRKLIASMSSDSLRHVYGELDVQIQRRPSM
Experiment: Fluorogenic assay kit F001 (Zedira), isopeptidase activity of FXIIIa
Type: biochemical
Details: FXIIIa after activation by thrombin; fluorescence ex 313 nm / em 418 nm
Method: Kinetic data of the inhibitor 1 (compound 4) and inhibitor 2 (compound 7) using the commercial fluorogenic assay kit F001 (Zedira) show an IC50 of about 0.11 and 0.08 μM respectively. The fluorogenic assay kit F001 (Zedira) is ready to use. Briefly, recombinant factor XIII (Zedira, product number T027) or human blood derived factor XIII (T007) is reconstituted in water. The enzymatic activity is measured in a suitable buffer (e.g. TRIS buffer pH 7.5 containing calcium chloride, sodium chloride, poly ethylene glycol (PEG), glycine methyl ester, clot inhibitor peptide GPRP-amide) after activation by thrombin. Factor XIIIa cleaves a dark quenching molecule from the side chain of the modified peptide incorporating glycine methyl ester (so called iso-peptidase activity). Subsequently, the fluorescence of an N-terminal coupled dye increases and can be monitored on-line (excitation wavelength 313 nm; emission wavelength 418 nm). The inhibitor of interest can be added after the activation of Factor XIII by thrombin is completed. The IC50 value represents the inhibitor concentration leading to a 50% inhibition of FXIIIa activity.

| SMILES | IC50 [nM] |
| --- | --- |
| CCCC[C@H](NC(=O)[C@H](CC/C=C/C(=O)OC)NC(=O)[C@@H](CC(=O)O)NC(C)=O)C(=O)N[C@@H](CCCC)C(=O)N[C@@H](CC(C)C)C(=O)N1CCC[C@H]1C(=O)N[C@@H](Cc1c[nH]c2ccccc12)C(=O)N1CCC[C@H]1C(=O)O [compound 4, (S)-1-((S)-2-((S)-1-((4R,7S,10S,13S,16S)-10,13-dibutyl-4-(carboxymethyl)-7-((E)-5-methoxy-5-oxopent-3-enyl)-18-methyl-2,5,8,11,14-pentaoxo-3,6,9,12,15-pentaazanonadecanecarbonyl)pyrrolidine-2-carboxamido)-3-(1H-indol-3-yl)propanoyl)pyrrolidine-2-carboxylic acid] (Ac-[dD][X1][Nle][Nle]LPWP-OH) | ~110 |
| CCCC[C@H](NC(=O)[C@H](CC/C=C/C(=O)OC)NC(=O)[C@@H]1CC(=O)CN1)C(=O)N[C@H](C(=O)N[C@@H](CC(C)C)C(=O)N1CCC[C@H]1C(=O)N[C@@H](Cc1c[nH]c2ccccc12)C(=O)N1CCC[C@H]1C(=O)O)C(C)CC (stereo partly drawn) [compound 7, (S)-1-((S)-2-((S)-1-((8S,11S,14S,17S,E)-14-sec-butyl-11-butyl-17-isobutyl-3,9,12,15-tetraoxo-8-((S)-4-oxopyrrolidine-2-carboxamido)-2-oxa-10,13,16-triazaoctadec-4-ene)pyrrolidine-2-carboxamido)-3-(1H-indol-3-yl)propanoyl)pyrrolidine-2-carboxylic acid trifluoroacetate] (H-[Pro(4-oxo)][X1][Nle][Ile(3ξ)]LPWP-OH) | ~80 |
